In publication PMC10778626, “Efficacy of Novel Quaternary Ammonium and Phosphonium Salts Differing in Cation Type and Alkyl Chain Length against Antibiotic-Resistant Staphylococcus aureus” (International Journal of Molecular Sciences, 2023):
In brackets after ≈: the same amount, converted by molar mass.

What was measured:
HepG2 cells = experiment: Cytotoxicity by neutral red (NR) uptake; assay type: cell-based, human; conditions: HepG2, 24 h
Protocol: The evaluation of the cytotoxicity effects of QHSs was performed using hepatocellular carcinoma (HepG2) cells. […] The cells used for all experiments were taken between the 9th and 13th passages, to avoid phenotypic changes.
The cytotoxicity profile of the compounds under study was evaluated in HepG2 cells (2.5 × 10^5 cells/mL) seeded in 96-well plates. […] Control experiments were performed for viability endpoints by adding the vehicle (medium with 0.1% DMSO) instead of the compound solution.
In the NR uptake assay, following a 24 h incubation period with the test compounds, the cell culture medium was aspirated, and fresh medium containing 150 µL of the dye (at a concentration of […]) was added to the cells. […] After incubation, the cell culture medium was discarded, and a mixture of absolute ethanol and distilled water (1:1) containing 5% acetic acid was added to extract the dye accumulated within the lysosomes of viable cells. The absorbance at 540 nm was measured using a microplate reader (Synergy HTX Multi-Mode Reader—BioTek, Winooski, VT, USA).
For all assays, results are expressed as a percentage of the control (nontreated cells), taken as 100%.

S. aureus CECT 976 = test system: S. aureus CECT 976; set-up: method as in Abreu et al. [44]; conditions: antibiotics, broth microdilution, ref Abreu et al. [44]; cited from earlier work
S. aureus SA1199B = conditions: antibiotics, ref Abreu et al. [44]; cited from earlier work

Compound	NR uptake (lysosomal activity), % of control (HepG2 cells; 2 µg/mL)	NR uptake (lysosomal activity), % of control (HepG2 cells; 16 µg/mL)	NR uptake (lysosomal activity), % of control (HepG2 cells; 32 µg/mL)	MIC (S. aureus CECT 976) [µg/mL]	MIC (S. aureus SA1199B) [µg/mL]
O=C(O)c1cn(C2CC2)c2cc(N3CCNCC3)c(F)cc2c1=O [[CIP], ciprofloxacin, reference compound]	106.7 ± 11.16% (ns)	96.82 ± 5.237% (ns)	92.35 ± 6.807% (ns)	1 (≈ 3.02 µM)	128 (≈ 386 µM)
CC[C@H]1OC(=O)[C@H](C)[C@@H](O[C@H]2C[C@@](C)(OC)[C@@H](O)[C@H](C)O2)[C@H](C)[C@@H](O[C@@H]2O[C@H](C)C[C@H](N(C)C)[C@H]2O)[C@](C)(O)C[C@@H](C)C(=O)[C@H](C)[C@@H](O)[C@]1(C)O [[ERY], erythromycin, reference compound]	108.4 ± 4.998% (ns)	107.1 ± 7.642% (ns)	110.2 ± 9.546% (ns)	0.24 (≈ 0.327 µM)	–
CN(C)[C@@H]1C(O)=C(C(N)=O)C(=O)[C@@]2(O)C(O)=C3C(=O)c4c(O)cccc4[C@@](C)(O)[C@H]3C[C@@H]12 [[TET], tetracycline]	–	–	–	0.96 (≈ 2.16 µM)	–
